Legend:
Assay type in all cases: cell-based
[1] = test system: Salmonella (S. typhimurium, S. enteritidis, S. heidelberg); assay: Salmonella elimination in contaminated soybean meal: independent ferments vs. mixes (synergistic effect); details: 25° C. - 12% DBM; for Average (n = 3): Salmonella count; for LOG10 (CFU/g) / Reduction %: Salmonella
Protocol: In order to assess the effectiveness of the mix of the invention in the matrix of interest, an appropriate working protocol was prepared. Initially, 500 g of soybean meal were infected with 50 mL of Salmonella solution whose composition was: 10^6 CFUS. typhimurium/mL, 10^6 CFUS. enteritidis /mLand 10^6 CFUS. heidelberg /mL in equal amounts. […] 50 g of the wet meal obtained (≈25% moisture content on dry basis) were mixed within the dry meal (≈10% moisture content dry basis) and were stirred for 10 minutes. […] Daily determinations of Salmonella colony forming units were performed on this contaminated meal. To this end, 40.5 g of BPW to 4.5 g of the resulting meal were added and vigorously stirred, and then 100μL of this solution, were plated onto Salmonella-Shigella agar (SS Agar). When microorganisms were used in the protecting mixes, concentrations were carefully balanced, and the amount of bacteria added was always the same.
In the cases in which solutions with ferments were used for protection purposes, cell concentration was of about 10^8 CFU/mL.
Using the protocol described above, the effects caused by the individual strains were assessed and then compared with the effect obtained after mixing them together. […] In order to come closer to the actual values, whenever a ND value was obtained using the methodology described above, a new dilution factor was applied; each time by adding only 18 g of buffer (stirring thoroughly and then spinning), and 200 μL of this solution were plated for recounting. […] This new protocol was only used to determine the effect of the different mixes. In turn, the results obtained herein are shown using the following formula: […]
Thus, the percentage of Salmonella elimination in meal was calculated for different mixes, as well as for each ferment individually.

[2] = test system: Aspergillus niger ATCC 16404; assay: Protection against fungi: A. niger in premixed soybean meal; details: 25° C. - 12% DBM; for Average (n = 3): A. niger count; for LOG10 (CFU/g): A. niger
Protocol: For the determination of fungal CFU, 20 grams of soybean meal were added to 180 mL of sterile tap water with Tween 80, which was vigorously stirred. Serial dilutions of the sample were carried out in order to perform recounting on the appropriate plates, in a Czapek-Dox agar medium.

Salmonella = assay: Residual effect: contamination and recontamination with Salmonella after treatment of soybean meal; details: 25° C. - 12% DBM; for Average (n = 3): Salmonella count; for LOG10 (CFU/g): Salmonella
Protocol: In order to assess the effectiveness of the mix of the invention in the matrix of interest, an appropriate working protocol was prepared. Initially, 500 g of soybean meal were infected with 50 mL of Salmonella solution whose composition was: 10^6 CFUS. typhimurium/mL, 10^6 CFUS. enteritidis /mLand 10^6 CFUS. heidelberg /mL in equal amounts. […] Daily determinations of Salmonella colony forming units were performed on this contaminated meal. To this end, 40.5 g of BPW to 4.5 g of the resulting meal were added and vigorously stirred, and then 100μL of this solution, were plated onto Salmonella-Shigella agar (SS Agar). When microorganisms were used in the protecting mixes, concentrations were carefully balanced, and the amount of bacteria added was always the same.
For this reason it was decided to study the response of meals protected with different solutions, by contaminating them at different times after protection. Given the complexity of the logistics of meal products, they were tested at two different times: initial contamination and recontamination on the first week after treatment; and, contamination on the fourth week with subsequent recontamination on the fifth week after treatment. In all cases, itl was contaminated and recontaminated with Salmonella solutions whose concentration was approximately 10^6 CFU/mL (as previously described).

[3] = 0 days, first series (0-6 days)
[4] = 0 days, second series (0-3 days)
[5] = 1 day, second series (0-3 days)
[6] = 2 days, first series (0-6 days)
[7] = 2 days, second series (0-3 days)
[8] = 3 days, first series (0-6 days)
[9] = 3 days, second series (0-3 days)
[10] = 4 days, first series (0-6 days)
[11] = 5 days, first series (0-6 days)
[12] = 6 days, first series (0-6 days)
[13] = day 8, after RECONTAMINATION (first week)
[14] = day 9, after RECONTAMINATION (first week)
[15] = day 11, after RECONTAMINATION (first week)
[16] = day 12, after RECONTAMINATION (first week)
[17] = day 13, after RECONTAMINATION (first week)
[18] = day 14, after RECONTAMINATION (first week)
[19] = day 15, after RECONTAMINATION (first week)
[20] = day 37, contamination on the fourth week after treatment
[21] = day 38, after RECONTAMINATION (fifth week)
[22] = day 39, after RECONTAMINATION (fifth week)
[23] = day 41, after RECONTAMINATION (fifth week)
[24] = day 42, after RECONTAMINATION (fifth week)
[25] = day 44, after RECONTAMINATION (fifth week)

SMILES: CCC(=O)O [Propionic Acid]
- Average (n = 3) [1, 3]: 199.67
- Average (n = 3) [1, 4]: 199.67
- Average (n = 3) ([1]; 1 day, first series (0-6 days)): 145
- Average (n = 3) [1, 5]: 145
- Average (n = 3) [1, 6]: 110
- Average (n = 3) [1, 7]: 110
- Average (n = 3) [1, 8]: 90
- Average (n = 3) [1, 9]: 90
- Average (n = 3) [1, 10]: 60.67
- Average (n = 3) [1, 11]: 57
- Average (n = 3) [1, 12]: 38.33
- LOG10 (CFU/g) [1, 3]: 3.65 LOG10 (CFU/g)
- Reduction % [1, 3]: 0.00%
- LOG10 (CFU/g) [1, 4]: 3.65 LOG10 (CFU/g)
- Reduction % [1, 4]: 0.00%
- LOG10 (CFU/g) ([1]; 1 day, first series (0-6 days)): 3.51 LOG10 (CFU/g)
- Reduction % ([1]; 1 day, first series (0-6 days)): 3.81%
- LOG10 (CFU/g) [1, 5]: 3.51 LOG10 (CFU/g)
- Reduction % [1, 5]: 3.81%
- LOG10 (CFU/g) [1, 6]: 3.39 LOG10 (CFU/g)
- Reduction % [1, 6]: 7.10%
- LOG10 (CFU/g) [1, 7]: 3.39 LOG10 (CFU/g)
- Reduction % [1, 7]: 7.10%
- LOG10 (CFU/g) [1, 8]: 3.30 LOG10 (CFU/g)
- Reduction % [1, 8]: 9.49%
- LOG10 (CFU/g) [1, 9]: 3.30 LOG10 (CFU/g)
- Reduction % [1, 9]: 9.49%
- LOG10 (CFU/g) [1, 10]: 3.13 LOG10 (CFU/g)
- Reduction % [1, 10]: 14.22%
- LOG10 (CFU/g) [1, 11]: 3.10 LOG10 (CFU/g)
- Reduction % [1, 11]: 14.93%
- LOG10 (CFU/g) [1, 12]: 2.93 LOG10 (CFU/g)
- Reduction % [1, 12]: 19.76%
- Average (n = 3) ([2]; 0 days): 199.76
- Average (n = 3) ([2]; 1 day): 152
- Average (n = 3) ([2]; 2 days): 121.33
- Average (n = 3) ([2]; 3 days): 91.67
- Average (n = 3) ([2]; 4 days): 78
- Average (n = 3) ([2]; 5 days): 57
- Average (n = 3) ([2]; 6 days): 38
- LOG10 (CFU/g) ([2]; 0 days): 3.65 LOG10 (CFU/g)
- LOG10 (CFU/g) ([2]; 1 day): 3.53 LOG10 (CFU/g)
- LOG10 (CFU/g) ([2]; 2 days): 3.43 LOG10 (CFU/g)
- LOG10 (CFU/g) ([2]; 3 days): 3.31 LOG10 (CFU/g)
- LOG10 (CFU/g) ([2]; 4 days): 3.24 LOG10 (CFU/g)
- LOG10 (CFU/g) ([2]; 5 days): 3.10 LOG10 (CFU/g)
- LOG10 (CFU/g) ([2]; 6 days): 2.93 LOG10 (CFU/g)
- Average (n = 3) (Salmonella; day 2, initial contamination): 130
- Average (n = 3) (Salmonella; day 3, initial contamination): 100.3
- Average (n = 3) (Salmonella; day 4, initial contamination): 90.5
- Average (n = 3) (Salmonella; day 5, initial contamination): 77
- Average (n = 3) (Salmonella; day 6, initial contamination): 58
- Average (n = 3) (Salmonella; day 7, initial contamination): 32
- Average (n = 3) (Salmonella; [13]): 215
- Average (n = 3) (Salmonella; [14]): 189.33
- Average (n = 3) (Salmonella; day 10, after RECONTAMINATION (first week)): 144.33
- Average (n = 3) (Salmonella; [15]): 109
- Average (n = 3) (Salmonella; [16]): 96.67
- Average (n = 3) (Salmonella; [17]): 70.67
- Average (n = 3) (Salmonella; [18]): 48.67
- Average (n = 3) (Salmonella; [19]): 40
- Average (n = 3) (Salmonella; day 32, contamination on the fourth week after treatment): 130
- Average (n = 3) (Salmonella; day 33, contamination on the fourth week after treatment): 120.3
- Average (n = 3) (Salmonella; day 34, contamination on the fourth week after treatment): 90.5
- Average (n = 3) (Salmonella; day 35, contamination on the fourth week after treatment): 77
- Average (n = 3) (Salmonella; day 36, contamination on the fourth week after treatment): 58
- Average (n = 3) (Salmonella; [20]): 39
- Average (n = 3) (Salmonella; [21]): 247
- Average (n = 3) (Salmonella; [22]): 189
- Average (n = 3) (Salmonella; day 40, after RECONTAMINATION (fifth week)): 174.34
- Average (n = 3) (Salmonella; [23]): 156.34
- Average (n = 3) (Salmonella; [24]): 136.34
- Average (n = 3) (Salmonella; day 43, after RECONTAMINATION (fifth week)): 111.67
- Average (n = 3) (Salmonella; [25]): 88.34
- Average (n = 3) (Salmonella; day 45, after RECONTAMINATION (fifth week)): 77
- LOG10 (CFU/g) (Salmonella; [13]): 3.68 LOG10 (CFU/g)
- LOG10 (CFU/g) (Salmonella; [14]): 3.62 LOG10 (CFU/g)
- LOG10 (CFU/g) (Salmonella; [15]): 3.38 LOG10 (CFU/g)
- LOG10 (CFU/g) (Salmonella; [16]): 3.33 LOG10 (CFU/g)
- LOG10 (CFU/g) (Salmonella; [17]): 3.20 LOG10 (CFU/g)
- LOG10 (CFU/g) (Salmonella; [18]): 3.03 LOG10 (CFU/g)
- LOG10 (CFU/g) (Salmonella; [19]): 2.95 LOG10 (CFU/g)
- LOG10 (CFU/g) (Salmonella; [20]): 2.94 LOG10 (CFU/g)
- LOG10 (CFU/g) (Salmonella; [21]): 3.74 LOG10 (CFU/g)
- LOG10 (CFU/g) (Salmonella; [22]): 3.62 LOG10 (CFU/g)
- LOG10 (CFU/g) (Salmonella; [23]): 3.54 LOG10 (CFU/g)
- LOG10 (CFU/g) (Salmonella; [24]): 3.48 LOG10 (CFU/g)
- LOG10 (CFU/g) (Salmonella; [25]): 3.29 LOG10 (CFU/g)

From patent US20170238571A1, “A SYNERGISTIC COMPOSITION COMPRISING A MIXTURE OF BACTERIA OF THE GENERA LACTOBACILLUS AND PROPIONOBACTERIUM PARTICULARLY USEFUL TO REDUCE OR ELIMINATE PATHOGEN CONTAMINATION IN SOYBEN MEAL AND ITS DERIVATIVES; METHODS AND USES THEREOF” (Molinos Río de la Plata S.A., priority 2014, published 2017)
